Experimental data published in patent US20140295425A1, “Diagnosis for Alzheimer's Disease” (The University of Birmingham, priority 2011, published 2014).

Tested on: lymphocytes
Experiment: Two-colour microarray gene expression analysis of lymphocytes treated with rapamycin vs untreated
Assay type: cell-based, human
Conditions: rapamycin 100 ng/ml, 24 h
Experimental: Two-colour microarray based gene expression analysis (Agilent Technologies) was used to identify genes that were differentially expressed in lymphocytes treated with rapamycin compared to lymphocytes that were left untreated. The microarray used was the Agilent Whole Human Genome Microarray: 4×44K.
Two parallel lymphocyte cultures were set up in RPMI medium supplemented with 10% FCS at a concentration of 1×10^6 cells per 1 ml of culture media. Phytohaemaglutinin (PHA) was added to the cultures at a final concentration of 22 μg/ml to activate the lymphocytes. Cultures were incubated for 48 hours at 37° C. in a humidified atmosphere containing 5% CO2. After 48 hours culture, one culture was treated with 100 ng/ml rapamycin, while the other untreated culture was kept as a control. After a further 24 hours, the cells of each lymphocyte culture were harvested by centrifugation.
RNA was extracted from the lymphocyte pellets using TRI Reagent® in accordance with standard protocol. To ensure that there was no DNA contamination, the RNA was treated with DNase (Qiagen) according to the manufacturer's standard protocol. RNA quality was determined by RNA nano-chip analysis using an Agilent 2100 Bioanalyser, also according to standard protocol. The RNA quality of the samples ranged from 8-10 RNA Integrity Number (RIN), indicative of good quality RNA suitable for gene expression microarray.
200 ng of RNA was converted to cDNA with the low-input quick amplification labelling kit (Agilent, 5190-2305). Spike Mix A and B were prepared separately. For each, the spike mix was thawed and vortexed, incubated at 37° C. for 5 minutes, and diluted in the provided dilution buffer (see Table 3 for dilution protocol). 2 μl of diluted spike mix A and spike mix B were added to 200 ng of RNA in a 1.5 μl volume from the rapamycin-treated and untreated lymphocytes respectively. […] The samples were incubated at 65° C. for 10 minutes, and placed on ice for 5 minutes. 4.7 μl of the cDNA master mix was added per sample, and samples incubated at 40° C. for 2 hours; 70° C. for 15 minutes; and placed on ice for 5 minutes.
The low-input quick amplification labelling kit (Agilent, 5190-2305) was used to convert the cDNA to labelled cRNA. Spike Mix A samples were added to transcription master mix prepared with Cyanine 3-CTP (green), whereas Spike Mix B samples were added to transcription master mix prepared with Cyanine 5-CTP (red). 6 μl of the transcription master mix was added per 10 μl cDNA sample, and incubated at 40° C. for 2 hours.
The cRNA was purified by standard RNeasy mini column protocol (Qiagen). The cRNA was quantified with a nanodrop spectrophotometer on the Microarray setting. The yield and specific activity of the cRNA samples were calculated as follows: […]
825 ng of labelled cRNA was added to various fragmentation components as described in Table 7, incubated at 60° C. for 30 minutes, and cooled on ice for 1 minute. 55 μl of GEx Hybridisation buffer HI-RPM was subsequently added to stop fragmentation. The samples were mixed, centrifuged at 13,000 rotations per minute (RPM) for 1 minute, and placed on ice in preparation for microarray assembly. The microarray of choice was the 4×44K Agilent Whole Human Genome Microarray. A clean gasket slide was placed into the chamber base, 100 μl of sample dispensed per well, and array placed onto the gasket slide to facilitate hybridisation. The gasket and microarray slides were clamped together and incubated at 65° C. for 17 hours.
Following hybridisation, the microarrays were washed in various wash solutions as described in Table 8. To summarise, the microarrays were removed from the hybridisation assembly and carefully separated from the gasket slide whilst fully submersed in wash buffer 1. Slides were washed for 1 minute, transferred to wash buffer 2 at 37° C. for 1 minute, and washed in acetonitrile for 10 seconds. The final wash was in stabilisation and drying solution for 30 seconds. […]

## CO[C@H]1C[C@@H]2CC[C@@H](C)[C@@](O)(O2)C(=O)C(=O)N2CCCC[C@H]2C(=O)O[C@H]([C@H](C)C[C@@H]2CC[C@@H](O)[C@H](OC)C2)CC(=O)[C@H](C)/C=C(\C)[C@@H](O)[C@@H](OC)C(=O)[C@H](C)C[C@H](C)/C=C/C=C/C=C/1C [rapamycin]
Gene ACPP (up-regulated)
  Fold change: 1.769
Gene ACSL6 (down-regulated)
  Fold change: −1.795
Gene ACSS1 (up-regulated)
  Fold change: 1.212
Gene ADAMTS15 (up-regulated)
  Fold change: 1.095
Gene ADAMTS16 (down-regulated)
  Fold change: −1.497
Gene ADH6 (up-regulated)
  Fold change: 1.177
Gene ADSSL1 (up-regulated)
  Fold change: 0.8544
Gene ALDH1A3 (up-regulated)
  Fold change: 1.792
Gene AMY1C, symbol AMY1A (includes others) (up-regulated)
  Fold change: 0.8998
Gene AP1S1 (down-regulated)
  Fold change: −1.488
Gene B3GALT4 (up-regulated)
  Fold change: 1.175
Gene B4GALT6 (up-regulated)
  Fold change: 1.07
Gene BMP7 (up-regulated)
  Fold change: 1.123
Gene CA6 (up-regulated)
  Fold change: 1.029
Gene CCL1 (up-regulated)
  Fold change: 1.135
Gene CCL2 (down-regulated)
  Fold change: −2.661
Gene CCL8 (down-regulated)
  Fold change: −2.62
Gene CCL26 (up-regulated)
  Fold change: 1.662
Gene COL8A2 (down-regulated)
  Fold change: −1.411
Gene CROT (down-regulated)
  Fold change: −2.4978
Gene CTSF (up-regulated)
  Fold change: 1.61
Gene CYP3A5 (up-regulated)
  Fold change: 1.214
Gene CYP4F3 (up-regulated)
  Fold change: 1.395
Gene CYP4V2 (up-regulated)
  Fold change: 0.8253
Gene CYP4X1 (up-regulated)
  Fold change: 1.062
Gene DCLK1 (up-regulated)
  Fold change: 1.437
Gene DHRS3 (up-regulated)
  Fold change: 0.8206
Gene DTD1 (up-regulated)
  Fold change: 1.511
Gene DUSP13 (up-regulated)
  Fold change: 1.045
Gene DYNC2LI1 (down-regulated)
  Fold change: −1.902
Gene DZIP3 (up-regulated)
  Fold change: 0.8533
Gene EGLN3 (down-regulated)
  Fold change: −1.959
Gene F9 (up-regulated)
  Fold change: 1.605
Gene FGF2 (down-regulated)
  Fold change: −2.241
Gene FGF18 (down-regulated)
  Fold change: −1.255
Gene FJX1 (down-regulated)
  Fold change: −2.328
Gene FUT9 (down-regulated)
  Fold change: −1.648
Gene GBP3 (up-regulated)
  Fold change: 0.8462
Gene GDA (up-regulated)
  Fold change: 1.596
Gene GNAL (up-regulated)
  Fold change: 0.996
Gene GPAM (down-regulated)
  Fold change: −1.231
Gene GPX6 (up-regulated)
  Fold change: 1.702
Gene HCK (down-regulated)
  Fold change: −1.403
Gene HSD17B13 (up-regulated)
  Fold change: 1.51
Gene IGBP1 (up-regulated)
  Fold change: 0.8038
Gene IGF2 (up-regulated)
  Fold change: 1.185
Gene IL1B (up-regulated)
  Fold change: 1.136
Gene IL1RN (up-regulated)
  Fold change: 1.004
Gene IL2 (down-regulated)
  Fold change: −1.407
Gene IL3 (down-regulated)
  Fold change: −2.123
Gene IL6 (down-regulated)
  Fold change: −1.3333
Gene IL10 (down-regulated)
  Fold change: −2.727
Gene INPP5E (down-regulated)
  Fold change: −1.4981
Gene INPP5K (up-regulated)
  Fold change: 0.7753
Gene JAK1 (up-regulated)
  Fold change: 0.8726
Gene LEFTY1 (up-regulated)
  Fold change: 1.067
Gene LEP (up-regulated)
  Fold change: 1.281
Gene LIPF (up-regulated)
  Fold change: 1.349
Gene LOXL3 (down-regulated)
  Fold change: −1.3654
Gene MMP9 (up-regulated)
  Fold change: 1.152
Gene MOXD1 (down-regulated)
  Fold change: −2.421
Gene MPP4 (up-regulated)
  Fold change: 0.8611
Gene MTHFR (up-regulated)
  Fold change: 0.8153
Gene OGN (up-regulated)
  Fold change: 1.567
Gene PAOX (up-regulated)
  Fold change: 0.8572
Gene PDE1A (up-regulated)
  Fold change: 1.31
Gene PDE4C (up-regulated)
  Fold change: 1.017
Gene PDK4 (up-regulated)
  Fold change: 0.8187
Gene PIM1 (up-regulated)
  Fold change: 1.101
Gene PITPNM2 (up-regulated)
  Fold change: 0.8702
Gene PLAT (up-regulated)
  Fold change: 0.8897
Gene PLB1 (up-regulated)
  Fold change: 1.566
Gene PLD1 (up-regulated)
  Fold change: 0.9334
Gene PLGLB1, symbol PLGLB1/PLGLB2 (up-regulated)
  Fold change: 0.9441
Gene PON3 (up-regulated)
  Fold change: 1.013
Gene PRKG1 (down-regulated)
  Fold change: −1.116
Gene PRODH2 (up-regulated)
  Fold change: 1.716
Gene PRSS23 (up-regulated)
  Fold change: 1.012
Gene PTGS2 (down-regulated)
  Fold change: −1.2871
Gene PYCR1 (down-regulated)
  Fold change: −1.294
Gene RAB37 (up-regulated)
  Fold change: 0.9052
Gene RAB39 (up-regulated)
  Fold change: 0.8095
Gene RND3 (up-regulated)
  Fold change: 0.9124
Gene RPS6KB1 (up-regulated)
  Fold change: 1.481
Gene RRAD (down-regulated)
  Fold change: −1.632
Gene SGTA (down-regulated)
  Fold change: −1.403
Gene SPP1 (up-regulated)
  Fold change: 1.471
Gene SPRED2 (up-regulated)
  Fold change: 0.825
Gene ST3GAL6 (up-regulated)
  Fold change: 1.175
Gene ST6GALNAC2 (down-regulated)
  Fold change: −1.242
Gene STK31 (up-regulated)
  Fold change: 1.092
Gene STS (up-regulated)
  Fold change: 0.8677
Gene TAC1 (down-regulated)
  Fold change: −1.262
Gene TDH (up-regulated)
  Fold change: 1.414
Gene THBS1 (down-regulated)
  Fold change: −1.359
Gene TRIB1 (up-regulated)
  Fold change: 1.07
Gene UBE2M (down-regulated)
  Fold change: −1.504
Gene ULK2 (up-regulated)
  Fold change: 1.069
Gene WWP2 (up-regulated)
  Fold change: 0.9105
Gene ZADH2 (up-regulated)
  Fold change: 1.005
